# Assay results reported in ChEMBL document CHEMBL2346580, “Design, synthesis and SAR investigation of thienosultam derivatives as ADAMTS-5 (aggrecanase-2) inhibitors” (Bioorg Med Chem Lett, 2013).
# Columns and labels:
# [1] = target: Stromelysin-1 (Homo sapiens) (UniProt P08254); assay: Inhibition of MMP3 (unknown origin)
# [2] = target: T1, A disintegrin and metalloproteinase with thrombospondin motifs 5 (Homo sapiens) (UniProt Q9UNA0); assay: Inhibition of ADAMTS5 (unknown origin) using QF-peptide containing an aggrecanase cleavage site by FRET assay
# T1 sequence (whole entry): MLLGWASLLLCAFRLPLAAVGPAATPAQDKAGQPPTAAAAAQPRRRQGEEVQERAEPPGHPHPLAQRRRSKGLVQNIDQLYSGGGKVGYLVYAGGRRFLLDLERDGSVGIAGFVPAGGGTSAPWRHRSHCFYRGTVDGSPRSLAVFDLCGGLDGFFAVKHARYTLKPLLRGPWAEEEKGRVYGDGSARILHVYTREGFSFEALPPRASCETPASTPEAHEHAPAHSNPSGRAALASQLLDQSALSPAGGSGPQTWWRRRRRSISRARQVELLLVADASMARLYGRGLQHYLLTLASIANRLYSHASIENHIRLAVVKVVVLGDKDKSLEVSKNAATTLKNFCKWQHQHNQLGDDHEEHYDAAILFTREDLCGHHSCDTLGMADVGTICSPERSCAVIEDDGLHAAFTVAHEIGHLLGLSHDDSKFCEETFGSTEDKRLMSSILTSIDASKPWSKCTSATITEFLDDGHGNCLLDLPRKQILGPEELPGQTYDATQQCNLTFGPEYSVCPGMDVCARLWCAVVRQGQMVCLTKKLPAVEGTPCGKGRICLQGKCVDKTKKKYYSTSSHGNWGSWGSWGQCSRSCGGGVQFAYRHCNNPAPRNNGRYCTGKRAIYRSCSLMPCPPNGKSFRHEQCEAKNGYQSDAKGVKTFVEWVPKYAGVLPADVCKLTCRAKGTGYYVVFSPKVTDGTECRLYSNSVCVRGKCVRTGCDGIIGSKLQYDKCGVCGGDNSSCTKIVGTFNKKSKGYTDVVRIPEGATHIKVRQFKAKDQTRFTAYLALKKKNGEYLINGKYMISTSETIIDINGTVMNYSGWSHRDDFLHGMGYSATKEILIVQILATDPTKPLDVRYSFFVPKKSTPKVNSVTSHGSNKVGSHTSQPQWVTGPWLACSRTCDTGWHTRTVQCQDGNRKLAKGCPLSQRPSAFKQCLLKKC
# [3] = target: T2, A disintegrin and metalloproteinase with thrombospondin motifs 4 (Homo sapiens) (UniProt O75173); assay: Inhibition of ADAMTS4 (unknown origin)
# T2 sequence (whole entry): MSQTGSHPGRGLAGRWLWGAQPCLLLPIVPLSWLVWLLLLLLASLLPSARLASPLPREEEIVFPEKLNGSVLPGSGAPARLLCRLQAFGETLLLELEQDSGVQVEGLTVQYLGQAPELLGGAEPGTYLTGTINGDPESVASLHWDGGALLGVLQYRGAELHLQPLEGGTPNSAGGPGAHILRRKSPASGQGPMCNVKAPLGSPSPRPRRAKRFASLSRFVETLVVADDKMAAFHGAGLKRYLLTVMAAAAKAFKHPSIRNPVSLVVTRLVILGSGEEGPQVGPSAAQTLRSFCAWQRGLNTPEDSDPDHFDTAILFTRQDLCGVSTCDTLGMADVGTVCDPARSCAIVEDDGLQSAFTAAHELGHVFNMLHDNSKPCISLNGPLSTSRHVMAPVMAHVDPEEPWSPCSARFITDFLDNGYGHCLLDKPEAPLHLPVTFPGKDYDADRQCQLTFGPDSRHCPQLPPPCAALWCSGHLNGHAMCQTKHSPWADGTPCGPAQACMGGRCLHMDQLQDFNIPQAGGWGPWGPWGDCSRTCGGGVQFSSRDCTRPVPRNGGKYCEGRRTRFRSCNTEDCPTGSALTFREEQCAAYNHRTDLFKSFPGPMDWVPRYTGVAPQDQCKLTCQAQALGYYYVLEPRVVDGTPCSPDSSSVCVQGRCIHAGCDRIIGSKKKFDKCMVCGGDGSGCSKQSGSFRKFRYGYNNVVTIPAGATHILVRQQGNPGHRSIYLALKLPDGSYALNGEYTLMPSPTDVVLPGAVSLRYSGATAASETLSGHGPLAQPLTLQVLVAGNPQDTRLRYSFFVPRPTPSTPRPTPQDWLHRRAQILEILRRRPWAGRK
# [4] = target: 72 kDa type IV collagenase (Homo sapiens) (UniProt P08253); assay: Inhibition of MMP2 (unknown origin)
# [5] = Volume of distribution at steady state in Sprague-Dawley rat at 1 mg/kg, iv and 5 mg/kg, po; type: ADME, organism-based; details: in vivo, read-out: Vdss
# [6] = target: Matrix metalloproteinase-14 (Homo sapiens) (UniProt P50281); assay: Inhibition of MMP14 (unknown origin)
# [7] = AUC (0 to infinity) in Sprague-Dawley rat at 1 mg/kg, iv and 5 mg/kg, po; type: ADME, organism-based; details: plasma
# [8] = Half life in Sprague-Dawley rat at 1 mg/kg, iv and 5 mg/kg, po; type: ADME, organism-based; details: in vivo
# [9] = system: Rattus norvegicus; assay: Cmax in Sprague-Dawley rat at 1 mg/kg, iv and 5 mg/kg, po; type: ADME, organism-based; details: in vivo
# [10] = system: Rattus norvegicus; assay: (§1) Oral bioavailability in Sprague-Dawley rat at 5 mg/kg; type: ADME, organism-based; details: in vivo
# [11] = Clearance in Sprague-Dawley rat at 1 mg/kg, iv and 5 mg/kg, po; type: ADME, organism-based; details: in vivo
# [12] = species: Homo sapiens; assay: Selectivity ratio of inhibition of MMP2 (unknown origin) to ADAMTS5 (unknown origin)
# [13] = as §1; type: ADME, organism-based; details: Sprague-Dawley, in vivo
# [14] = target: T1, A disintegrin and metalloproteinase with thrombospondin motifs 5 (Homo sapiens); assay: Inhibition of ADAMTS5 (unknown origin) using QF-peptide containing an aggrecanase cleavage site at 10 uM by FRET assay
# [15] = target: T2, A disintegrin and metalloproteinase with thrombospondin motifs 4 (Homo sapiens); assay: Inhibition of ADAMTS4 (unknown origin) at 10 uM
# Sequence of Stromelysin-1 (Homo sapiens) (P08254 100-477 limits assumed): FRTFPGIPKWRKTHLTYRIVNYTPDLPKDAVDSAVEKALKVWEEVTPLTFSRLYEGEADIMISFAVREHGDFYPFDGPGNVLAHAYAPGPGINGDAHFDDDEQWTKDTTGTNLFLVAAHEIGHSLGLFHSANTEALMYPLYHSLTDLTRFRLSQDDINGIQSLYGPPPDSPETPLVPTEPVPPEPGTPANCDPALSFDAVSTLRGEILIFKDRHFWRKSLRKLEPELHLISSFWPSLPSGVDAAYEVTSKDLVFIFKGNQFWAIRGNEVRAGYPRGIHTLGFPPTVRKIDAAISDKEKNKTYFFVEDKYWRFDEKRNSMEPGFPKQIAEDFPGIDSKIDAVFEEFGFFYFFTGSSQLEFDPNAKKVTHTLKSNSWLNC
# Sequence of 72 kDa type IV collagenase (Homo sapiens) (P08253 110-660 limits assumed): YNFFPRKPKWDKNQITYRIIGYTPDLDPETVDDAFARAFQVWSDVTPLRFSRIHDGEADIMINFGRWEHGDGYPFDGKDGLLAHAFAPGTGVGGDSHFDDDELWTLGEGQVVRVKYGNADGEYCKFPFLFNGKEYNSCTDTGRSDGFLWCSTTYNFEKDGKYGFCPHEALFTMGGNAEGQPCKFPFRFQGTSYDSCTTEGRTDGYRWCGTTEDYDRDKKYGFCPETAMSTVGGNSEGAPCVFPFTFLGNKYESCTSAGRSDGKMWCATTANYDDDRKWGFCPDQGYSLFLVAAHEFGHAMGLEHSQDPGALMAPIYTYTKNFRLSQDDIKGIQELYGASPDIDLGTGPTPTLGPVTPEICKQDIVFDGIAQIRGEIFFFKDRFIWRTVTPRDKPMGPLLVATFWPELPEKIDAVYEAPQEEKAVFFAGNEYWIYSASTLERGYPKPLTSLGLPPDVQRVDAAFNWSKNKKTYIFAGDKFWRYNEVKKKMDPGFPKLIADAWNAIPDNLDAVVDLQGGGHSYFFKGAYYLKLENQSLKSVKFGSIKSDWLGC
SMILES,INH [2],INH [4],Ratio [12],also measured
CC(C)[C@H](NS(=O)(=O)c1ccc(-c2ccccc2)cc1)C(=O)O,8.2 µM,0.04 µM,,INH [1]: 0.038 µM; INH [3]: 3 µM
CCC(C(=O)O)N1Cc2sc(C#Cc3ccc(N(C)C)cc3)cc2S1(=O)=O (racemic),1.5 µM,> 30 µM,> 20,Vd [5]: 0.34 L/kg; INH [6]: > 30 µM; AUC(0-inf) [7]: 106000 ng·h/mL; INH [1]: > 30 µM; INH [3]: > 10 µM; half-life [8]: 2.8 h; Cmax [9]: 29500 ng/mL; F [10]: 179%; clearance [11]: 58.3 mL/min/kg
CCC(C(=O)O)N1Cc2sc(-c3ccc(-c4cnn(Cc5ccccc5)c4)cc3)cc2S1(=O)=O (racemic),0.4 µM,> 30 µM,> 75,Vd [5]: 0.33 L/kg; INH [6]: > 30 µM; AUC(0-inf) [7]: 4730 ng·h/mL; INH [1]: > 30 µM; INH [3]: 8 µM; half-life [8]: 1.8 h; Cmax [9]: 3090 ng/mL; bioavailability [13]: 47%; clearance [11]: 278 mL/min/kg
CCC(C(=O)NO)N1Cc2sc(-c3ccc(-c4ccccc4)cc3)cc2S1(=O)=O (racemic),,0.3 µM,,INH [6]: < 30 µM; INH [1]: 20 µM; inhibition [14]: 3%; inhibition [15]: 1.7%
CCC(C(=O)NO)N1Cc2sc(-c3ccccc3)cc2S1(=O)=O (racemic),2.1 µM,0.03 µM,,INH [6]: 1.2 µM; INH [1]: 5.1 µM; INH [3]: 1.1 µM
CCC(C(=O)O)N1Cc2sc(-c3ccc(-c4ccc(N(C)C)nc4)cc3)cc2S1(=O)=O (racemic),7 µM,> 30 µM,> 4.5,
CCC(C(=O)O)N1Cc2sc(-c3ccc(-c4ccc(N(C)Cc5ccccc5)nc4)cc3)cc2S1(=O)=O (racemic),1 µM,> 30 µM,> 30,
CCC(C(=O)O)N1Cc2sc(-c3ccc(-c4ccc5ccn(C)c5c4)cc3)cc2S1(=O)=O (racemic),1 µM,16.5 µM,16.5,
CCC(C(=O)O)N1Cc2sc(-c3ccc(-c4ccc5cnn(C)c5c4)cc3)cc2S1(=O)=O (racemic),0.3 µM,4 µM,13.3,
CCC(C(=O)O)N1Cc2sc(-c3ccc(-c4ccccc4)cc3)cc2S1(=O)=O (racemic),2.1 µM,1.8 µM,0.78,INH [6]: < 5.1 µM; INH [1]: 1.2 µM; INH [3]: 1.1 µM; inhibition [15]: 1.6%
CCC(C(=O)O)N1Cc2sc(-c3ccc(-c4cccnc4)cc3)cc2S1(=O)=O (racemic),> 10 µM,> 30 µM,,
CCC(C(=O)O)N1Cc2sc(-c3ccc(-c4cccs4)cc3)cc2S1(=O)=O (racemic),1.3 µM,> 30 µM,> 23,
CCC(C(=O)O)N1Cc2sc(-c3ccc(-c4ccsc4)cc3)cc2S1(=O)=O (racemic),2.3 µM,> 30 µM,> 13,
CCC(C(=O)O)N1Cc2sc(-c3ccc(-c4cnn(C)c4)cc3)cc2S1(=O)=O (racemic),> 10 µM,> 30 µM,,
CCC(C(=O)O)N1Cc2sc(-c3ccc(/C=C/c4ccccc4)cc3)cc2S1(=O)=O (racemic),1.4 µM,3.9 µM,2.79,
CCC(C(=O)O)N1Cc2sc(-c3ccccc3)cc2S1(=O)=O (racemic),,16 µM,,INH [6]: > 30 µM; INH [1]: 12 µM; inhibition [14]: 3%; inhibition [15]: 1.7%
CCC(C(=O)O)N1Cc2sc(-c3ccn(C#Cc4ccccc4)n3)cc2S1(=O)=O (racemic),4 µM,> 30 µM,> 7.5,
CCC(C(=O)O)N1Cc2sc(-c3ccn(Cc4ccccc4)n3)cc2S1(=O)=O (racemic),,> 30 µM,,inhibition [14]: 43.2%
CCC(C(=O)O)N1Cc2sc(/C=C/c3ccc(C(F)(F)F)cc3)cc2S1(=O)=O (racemic),3.2 µM,2 µM,0.63,
CCC(C(=O)O)N1Cc2sc(C#CCC3CCCCC3)cc2S1(=O)=O (racemic),8.9 µM,> 30 µM,> 3.37,
CCC(C(=O)O)N1Cc2sc(C#Cc3cc(C(F)(F)F)cc(C(F)(F)F)c3)cc2S1(=O)=O (racemic),4.9 µM,> 30 µM,> 6.12,
CCC(C(=O)O)N1Cc2sc(C#Cc3ccc(-c4ccccc4)cc3)cc2S1(=O)=O (racemic),1.5 µM,> 30 µM,> 20,
CCC(C(=O)O)N1Cc2sc(C#Cc3ccccn3)cc2S1(=O)=O (racemic),9.3 µM,> 30 µM,> 3.23,
CCC(C(=O)O)N1Cc2sc(N3CCN(c4ccccc4)CC3)cc2S1(=O)=O (racemic),,> 30 µM,,inhibition [14]: 9%
